Entries after “also recorded” stand apart in the source; their conditions may differ. Where a SMILES comes first, the peptide text is derived from it. Bridges are numbered along the chain shown (N, C = ends). [ ]: non-standard residue; d: D form. The star is where a group is joined. S5 = C=CCCC[C@](C)(N)C(=O)O; Nle = CCCC[C@H](N)C(=O)O; Cbz = O=C(OCc1ccccc1)*; CH2F = FC*
B1: TRAIL: death receptor agonist, extrinsic pathway activator (protein, UniProt P50591 1-281, looked up)
Tumor necrosis factor ligand …: MAMMEVQGGPSLGQTCVLIVIFTVLLQSLCVAVTYVYFTNELKQMQDKYSKSGIACFLKEDDSYWDPNDEESMNSPCWQVKWQLRQLVRKMILRTSEETISTVQEKQQNISPLVRERGPQRVAAHITGTRGRSNTLSSPNSKNEKALGRKINSWESSRSGHSFLSNLHLRNGELVIHEKGFYYIYSQTYFRFQEEIKENTKNDKQMVQYIYKYTSYPDPILLMKSARNSCWSKDAEYGLYSIYQGGIFELKENDRIFVSVTNEHLIDMDHEASFFGAFLVG
B2: FasL: death receptor agonist, extrinsic pathway activator (protein, UniProt P48023 130-281, looked up)
Tumor necrosis factor ligand …: QIGHPSPPPEKKELRKVAHLTGKSNSRSMPLEWEDTYGIVLLSGVKYKKGGLVINETGLYFVYSKVYFRGQSCNNLPLSHKVYMRNSKYPQDLVMMEGKMMSYCTTGQMWARSSYLGAVFNLTSADHLYVNVSELSLVNFEESQTFFGLYKL

Assays:
[1] = test system: MCL-1ΔNΔC, BCL-2ΔC, BCL-XLΔC, BCL-wΔC and BFL-1/A1ΔC; experiment: FPA selectivity across panel of anti-apoptotic proteins; type: binding; conditions: FPA against anti-apoptotic panel
Procedure: (§1) Binding assays were performed as previously described (Pitter et al., Methods Enzymol 446, 387 (2008). Briefly, FITC-SAHB (50 nM) was added to serial dilutions of FPLC-purified recombinant protein in binding buffer (50 mM Tris, 100 mM NaCl, pH 8.0). For competition assays, serial dilutions of acetylated MCL-1 SAHBs were mixed with FITC-BAK SAHB (25 nM), followed by addition of MCL-1ΔNΔC (100 nM) diluted in binding buffer (50 mM Tris, 100 mM NaCl, pH 8.0). Multiwell plates were incubated in the dark at room temperature until equilibrium was reached and fluorescence polarization (mP units) was measured by microplate reader (SpectraMax, Molecular Devices). For direct binding experiments, dissociation constants (KD) were calculated by nonlinear regression analysis of dose-response curves using Prism software (Graphpad). For competition experiments, Ki values were determined by nonlinear regression analysis of dose-response curves using a one-site competition model.
(§2) Compounds that bound MCL-1 with high affinity were analyzed for MCL-1 selectivity by measuring SAHB affinities for recombinant BCL-XLΔC, BCL-WΔC and BFL-1/A1ΔC (FIG. 8B). Recombinant carboxy-terminal deleted anti-apoptotic proteins were expressed using the pGEX-4T vector, and purified as described for rMCL-1. The purified proteins were incubated with FITC-SAHBs, and binding affinities were analyzed by fluorescence polarization assay as described above. […] Optionally, design and optimization of tailored SAHB compounds for anti-apoptotic targeting also employed computational modeling.
After the experiments set forth above, further members of the library of stabilized alpha-helices of BCL-2 domains (SAHBs) modeled after the BH3 domains of BCL-2 family proteins were generated in order to identify potent and selective inhibitors of MCL-1. The native alpha-helical structure of BH3 domains was reinforced by incorporating non-natural amino acids containing olefin tethers at the (i, i+4) positions of the non-interacting face, followed by ruthenium catalyzed olefin metathesis to yield a panel of stapled BH3 domains (FIG. 7). Fluorescence polarization assays (FPA) were performed to measure the binding affinity of fluorescently labeled SAHBs for recombinant human MCL-1ΔNΔC (amino acids 172-320), a deletion construct that contains the BH3-binding pocket and affords enhanced expression, purity, and stability. […] To identify MCL-1-selective SAHBs, we first screened for recombinant BCL-XLΔC binding, which eliminated PUMA, BID, BIM, BOK, BAX, and BAK SAHBs and then for recombinant BFL1/A1ΔC binding, which eliminated NOXA SAHB.

[2] = test system: Jurkat T-cell leukemia cells; experiment: Cell viability by MTT assay, Jurkat; type: cell-based
Procedure: (§3) For viability testing, OPM2 and Jurkat cells (4×10^4) were treated with the indicated agents in Opti-MEM media at 37° C. in a final volume of 100 μL. Cell viability was measured at 24 hours by MTT assay, for which cells were incubated with 20 μL thiazolyl blue tetrazolium bromide (5 mg/mL in DPBS) at 37° C. for 4 hours, the precipitate solubilized with 0.1 N HCl isopropanol (100 μL), and absorbance measured at 570 nm and 650 nm.

recombinant BCL-XLΔC = recombinant BCL-XLΔC (Homo sapiens, UniProt Q07817); experiment: Fluorescence polarization direct binding of FITC-SAHBs to BCL-XLΔC; conditions: FPA
Procedure: as §1
as §2, with “Recombinant” for “Compounds that bound MCL-1 with high affinity were analyzed for MCL-1 selectivity by measuring SAHB affinities for recombinant BCL-XLΔC, BCL-WΔC and BFL-1/A1ΔC (FIG. 8B). Recombinant”

[3] = test system: OPM2 multiple myeloma cells; experiment: Cell viability by MTT assay, OPM2; type: cell-based; conditions: MTT at 24 hours
Procedure: as §3, with “OPM2 multiple myeloma cells and Jurkat T-cell leukemia were passaged and maintained in RPMI 1640 medium (Invitrogen) supplemented with 10% fetal bovine serum, 100 U/mL penicillin, 100 μg/mL streptomycin, 2 mM L-glutamine, 50 mM HEPES and 50 μM β-mercaptoethanol. For” for “For”

Sequence of recombinant BCL-XLΔC (Q07817 1-209, stated change not applied): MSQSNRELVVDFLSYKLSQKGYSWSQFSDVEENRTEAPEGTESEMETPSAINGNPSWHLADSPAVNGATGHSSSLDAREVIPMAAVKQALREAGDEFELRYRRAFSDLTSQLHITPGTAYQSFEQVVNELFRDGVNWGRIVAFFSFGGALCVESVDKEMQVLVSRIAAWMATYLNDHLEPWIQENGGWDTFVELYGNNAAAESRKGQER

Row | Molecule | binding selectivity among anti-apoptotic proteins [1] | BCL-XL binding (recombinant BCL-XLΔC) | other results
1 | LEVESXTQLXRFGDKLNFRQKL [NOXA SAHBB] | binds MCL-1ΔNΔC exclusively; also recorded: potent and exclusive MCL-1ΔNΔC binding activity |  | sensitization of Jurkat cells to FasL ([2]; combined with low dose FasL, MTT at 24 hours): behaved identically to MCL-1 SAHBD; also recorded: sensitized the apoptotic response of Jurkat cells to TRAIL and FasL; sensitization of Jurkat cells to TRAIL ([2]; combined with low dose TRAIL, MTT at 24 hours): behaved identically to MCL-1 SAHBD; also recorded: sensitized the apoptotic response of Jurkat cells to TRAIL and FasL
2 | CC(NC(=O)C(NC(=O)OCc1ccccc1)C(C)C)C(=O)NC(CC(=O)O)C(=O)CF (stereo not drawn) [z-VAD, reference compound] (Cbz-Val-Ala-Asp-CH2F; configuration not given here) |  |  | effect of pan-caspase inhibitor on MCL-1 SAHBD-induced sensitization ([2]; z-VAD 50 μM with MCL-1 SAHBD plus TRAIL/FasL, Jurkat and OPM2 cells): completely abrogated the negative effects on cell viability
3 | CCCC[C@H](NC(=O)[C@H](CCC(=O)O)NC(=O)[C@H](CC(C)C)NC(=O)[C@]1(C)CCCC=CCCC[C@](C)(NC(=O)[C@H](CC(C)C)NC(=O)[C@H](CC(C)C)NC(=O)[C@@H](NC(=O)[C@H](C)NC(=O)[C@H](CO)NC(=O)[C@@H](NC(=O)[C@H](CCC(=O)O)NC(=O)[C@H](C)NC(=O)[C@H](CC(C)C)NC(=O)[C@@H](N)CCCNC(=N)N)C(C)C)C(C)C)C(=O)N[C@@H](CC(C)C)C(=O)NCC(=O)N[C@@H](CC(=O)O)C(=O)N1)C(=O)N[C@H](C(=O)N[C@@H](CCCNC(=N)N)C(N)=O)[C@@H](C)CC [BOK SAHB] (H-RLAEVSAVLL[S5]LGD[S5]LE[Nle]IR-NH2; staple 11-15; C-terminus assumed) | significant preference for MCL-1 over the other anti-apoptotics | eliminated | 
4 | CC[C@H](C)[C@@H]1NC(=O)[C@@](C)(NC(=O)[C@H](CCCCN)NC(=O)[C@H](CC(C)C)NC(=O)[C@H](CO)NC(=O)[C@H](CCC(=O)O)NC(=O)[C@H](CO)NC(=O)[C@H](CC(C)C)NC(=O)[C@H](CCCCN)NC(=O)[C@H](CCCCN)NC(=O)[C@@H](NC(=O)[C@H](CO)NC(=O)[C@H](C)N)[C@@H](C)O)CCCC=CCCC[C@@](C)(C(=O)N[C@@H](CC(C)C)C(=O)N[C@@H](CC(=O)O)C(=O)N[C@@H](CO)C(=O)N[C@@H](CC(N)=O)C(N)=O)NC(=O)[C@H](CC(=O)O)NC(=O)CNC1=O [BAX SAHB] (H-ASTKKLSESLK[S5]IGD[S5]LDSN-NH2; staple 12-16; C-terminus assumed) |  | eliminated | 
5 | CC[C@H](C)[C@@H]1NC(=O)[C@@](C)(NC(=O)[C@H](C)NC(=O)[C@H](CC(C)C)NC(=O)[C@H](CCC(N)=O)NC(=O)[C@H](CCCNC(=N)N)NC(=O)CNC(=O)[C@@H](NC(=O)[C@@H](N)CCC(N)=O)C(C)C)CCCC=CCCC[C@@](C)(C(=O)N[C@H](C(=O)N[C@@H](CC(N)=O)C(=O)N[C@@H](CCCNC(=N)N)C(=O)N[C@@H](CCCNC(=N)N)C(=O)N[C@@H](Cc2ccc(O)cc2)C(=O)N[C@@H](CC(=O)O)C(N)=O)[C@@H](C)CC)NC(=O)[C@H](CC(=O)O)NC(=O)CNC1=O [BAK SAHB] (H-QVGRQLA[S5]IGD[S5]INRRYD-NH2; staple 8-12; C-terminus assumed) | high affinity pan-anti-apoptotic binders | eliminated | 
6 | CCCC[C@@H]1NC(=O)[C@@](C)(NC(=O)[C@H](CCCNC(=N)N)NC(=O)[C@H](CC(C)C)NC(=O)[C@H](CCC(N)=O)NC(=O)[C@H](C)NC(=O)CNC(=O)[C@@H](NC(=O)[C@H](CCC(=O)O)NC(=O)[C@H](CCCNC(=N)N)NC(=O)[C@H](C)NC(=O)[C@H](Cc2c[nH]c3ccccc23)NC(=O)[C@@H](N)CCC(N)=O)[C@@H](C)CC)CCCC=CCCC[C@@](C)(C(=O)N[C@@H](CC(C)C)C(=O)N[C@@H](CC(N)=O)C(=O)N[C@@H](C)C(=O)N[C@@H](CCC(N)=O)C(=O)N[C@@H](Cc2ccc(O)cc2)C(N)=O)NC(=O)[C@H](CC(=O)O)NC(=O)[C@H](C)NC1=O [PUMA SAHB] (H-QWAREIGAQLR[S5][Nle]AD[S5]LNAQY-NH2; staple 12-16; C-terminus assumed) |  | eliminated | 
7 | CCCC[C@H](NC(=O)[C@]1(C)CCCC=CCCC[C@](C)(NC(=O)[C@H](C)NC(=O)[C@H](CC(C)C)NC(=O)[C@H](Cc2c[nH]cn2)NC(=O)[C@H](CCCNC(=N)N)NC(=O)[C@H](C)NC(=O)[C@@H](NC(=O)[C@H](CC(N)=O)NC(=O)[C@H](CCCNC(=N)N)NC(=O)[C@@H](NC(=O)[C@@H](NC(=O)[C@@H](N)CC(=O)O)[C@@H](C)CC)[C@@H](C)CC)[C@@H](C)CC)C(=O)N[C@@H](C(C)C)C(=O)NCC(=O)N[C@@H](CC(=O)O)C(=O)N1)C(=O)N[C@@H](CC(=O)O)C(=O)N[C@@H](CCCNC(=N)N)C(=O)N[C@@H](CO)C(=O)N[C@H](C(=O)N[C@@H](CCCNC(=N)N)C(=O)N[C@@H](CCCNC(=N)N)C(N)=O)[C@@H](C)CC [BID SAHB] (H-DIIRNIARHLA[S5]VGD[S5][Nle]DRSIRR-NH2; staple 12-16; C-terminus assumed) |  | eliminated | 
8 | CC[C@H](C)[C@H](N)C(=O)N[C@@H](Cc1c[nH]c2ccccc12)C(=O)N[C@H](C(=O)N[C@@H](C)C(=O)N[C@@H](CCC(N)=O)C(=O)N[C@@H](CCC(=O)O)C(=O)N[C@@H](CC(C)C)C(=O)N[C@@H](CCCNC(=N)N)C(=O)N[C@@]1(C)CCCC=CCCC[C@@](C)(C(=O)N[C@@H](Cc2ccccc2)C(=O)N[C@@H](CC(N)=O)C(=O)N[C@@H](C)C(=O)N[C@@H](Cc2ccc(O)cc2)C(=O)N[C@@H](Cc2ccc(O)cc2)C(=O)N[C@@H](C)C(=O)N[C@@H](CCCNC(=N)N)C(=O)N[C@@H](CCCNC(=N)N)C(N)=O)NC(=O)[C@H](CC(=O)O)NC(=O)CNC(=O)[C@H]([C@@H](C)CC)NC1=O)[C@@H](C)CC [BIM SAHB] | pan-anti-apoptotic binder | eliminated | 
9 | B1 |  |  | OPM2 cell viability, single agent [3]: sensitive to TRAIL; also recorded: induced apoptosis; Jurkat cell viability, single agent ([2]; MTT at 24 hours): dose-responsive cytotoxicity; also recorded: induced apoptosis
10 | B2 |  |  | OPM2 cell viability, single agent [3]: sensitive to TRAIL but not FasL; also recorded: only Jurkat cells were sensitive to FasL; Jurkat cell viability, single agent ([2]; MTT at 24 hours): dose-responsive cytotoxicity; also recorded: only Jurkat cells were sensitive to FasL

From patent publication US9079970B2, “Methods and compositions for specific modulation of MCL-1” (Dana Farber Cancer Institute, Inc., priority 2008, dated 2015)
